{"source": "paper PMC12785453", "about": "“Oral Fluid Concentrations and Pharmacological Effects of Clephedrone and Methylone in Humans” (International Journal of Molecular Sciences, 2025)", "origin": "cited, not measured here", "key": {"[1]": {"tested_on": "humans", "details": "mephedrone, previous studies; cited from earlier work"}, "[2]": {"details": "cited from earlier work"}}, "note": "Values joined by “and” are separate entries in the source; they are usually repeats but may differ in a detail not shown here. Identical values can stand only once.", "data": [{"compound": "CNC(C)C(=O)c1ccc(C)cc1", "note": "(stereo not shown) [mephedrone, 4-methylmethcathinone]", "values": [{"measurement": "Effects returned to baseline after", "setting": "[1]", "value": "2 to 3", "unit": "h"}, {"measurement": "Time of peak effects", "setting": "[1]", "value": "0.75 h and 0.75 to 1 h"}, {"measurement": "Tmax in oral fluid", "setting": "[2]", "value": 2, "unit": "h"}, {"measurement": "Tmax in plasma", "setting": "[2]", "value": 1.25, "unit": "h"}]}]}
